The target of series [1] is T1, reuptake of dopamine(DA) in synaptosomes (Rattus norvegicus, UniProt P23977).
T1 construct: in synaptosomes as described in WO 97/16451; from tissue
Kind of series: Inhibition of dopamine (DA) reuptake in synaptosomes. Format: biochemical. Here is the method: (§1) A number of compounds were tested for their ability to inhibit the reuptake of the monoamine neurotransmitters dopamine(DA) noradrenaline(NA) and serotonine(5-HT) in synaptosomes as described in WO 97/16451.
(§2) The test values are given as IC50 (the concentration (μM) of the test substance which inhibits the specific binding of ^3H-DA, ^3H-NA, or ^3H-5-HT by 50%).

In series [2] the target is T2, reuptake of serotonine(5-HT) in synaptosomes (Rattus norvegicus, UniProt P31652).
T2 construct: in synaptosomes as described in WO 97/16451; from tissue
T2 sequence (P31652 whole entry): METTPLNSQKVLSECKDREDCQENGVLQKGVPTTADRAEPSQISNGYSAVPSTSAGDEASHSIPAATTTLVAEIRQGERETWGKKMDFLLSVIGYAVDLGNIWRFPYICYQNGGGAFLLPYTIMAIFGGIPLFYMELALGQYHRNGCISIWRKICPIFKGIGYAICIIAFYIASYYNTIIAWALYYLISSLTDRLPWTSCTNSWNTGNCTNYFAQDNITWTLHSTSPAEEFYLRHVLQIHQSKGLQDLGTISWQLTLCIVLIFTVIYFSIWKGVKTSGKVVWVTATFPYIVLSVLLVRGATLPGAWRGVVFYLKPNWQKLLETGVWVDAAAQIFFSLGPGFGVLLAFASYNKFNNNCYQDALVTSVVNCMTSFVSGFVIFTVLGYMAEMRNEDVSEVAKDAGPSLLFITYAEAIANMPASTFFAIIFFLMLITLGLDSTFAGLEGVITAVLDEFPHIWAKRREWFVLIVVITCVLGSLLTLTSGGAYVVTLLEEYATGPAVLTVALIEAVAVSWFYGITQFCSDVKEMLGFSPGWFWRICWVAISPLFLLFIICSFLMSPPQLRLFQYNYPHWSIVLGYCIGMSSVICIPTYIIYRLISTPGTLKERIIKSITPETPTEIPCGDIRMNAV
The series can be described thus: Inhibition of serotonine (5-HT) reuptake in synaptosomes. Type of series: biochemical. Here is the method:
as §1, §2

The mark [3] stands for this setting: synaptosomes, 3H-DA, read-out: DA-uptake IC50.

Counter-ions that a name gives are not always drawn. Like-named read-outs stand apart in the source and are kept apart here.

Drawing on patent publication US20040235906A1, “Substituted amine derivatives and their use as monoamine neurotransmitter re-up-take inhibitors” (priority 2001, published 2004), this text covers melting point and IC50 for seven compounds.

T1 sequence (P23977 whole entry): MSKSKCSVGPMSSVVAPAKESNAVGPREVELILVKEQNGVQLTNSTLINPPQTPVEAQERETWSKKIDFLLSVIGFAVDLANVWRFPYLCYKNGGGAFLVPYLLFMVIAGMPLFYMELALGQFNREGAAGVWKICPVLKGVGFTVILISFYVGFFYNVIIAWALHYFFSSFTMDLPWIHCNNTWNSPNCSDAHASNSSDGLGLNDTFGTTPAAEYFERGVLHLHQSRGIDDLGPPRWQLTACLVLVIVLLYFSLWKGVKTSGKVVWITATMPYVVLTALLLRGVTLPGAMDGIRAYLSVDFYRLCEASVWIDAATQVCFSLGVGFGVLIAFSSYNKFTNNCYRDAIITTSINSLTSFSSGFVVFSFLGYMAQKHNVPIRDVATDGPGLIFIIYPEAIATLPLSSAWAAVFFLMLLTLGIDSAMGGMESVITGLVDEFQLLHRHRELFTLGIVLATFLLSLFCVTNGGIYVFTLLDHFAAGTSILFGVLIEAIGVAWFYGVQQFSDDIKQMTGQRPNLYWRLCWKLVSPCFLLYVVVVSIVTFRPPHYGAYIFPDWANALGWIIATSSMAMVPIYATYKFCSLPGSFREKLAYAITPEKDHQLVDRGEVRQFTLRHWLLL

`CN1C2CCC1[C@H](COc1ccc(Cl)c(Cl)c1)CC2` (some centres unmarked) (as salt: fumarate) showed a melting point of 176 to 180 °C.

Consider `CN1C2CCC1[C@H](COc1ccc(Cl)c(Cl)c1)[C@@H](c1ccc(Cl)c(Cl)c1)C2` (stereo partly drawn) (as salt: fumaric acid salt) [Compound 15a, (2R,3S)-2-(3,4-Dichloro-phenoxymethyl)-3-(3,4-dichloro-phenyl)-8-methyl-8-aza-bicyclo[3.2.1]octane], for which the melting point was 215.1 to 217.2 °C.

In the case of `CC(C)[C@@H]1CC2CCC([C@@H]1COc1ccc(Cl)c(Cl)c1)N2C` (stereo partly drawn) (as salt: fumaric acid salt) [Compound 16, (2R,3S)-2-(3,4-Dichloro-phenoxymethyl)-3-(2-propyl)-8-methyl-8-aza-bicyclo[3.2.1]octane fumaric acid salt], the melting point fell in the range of 152.3 to 154.5 °C.

Consider `CN1C2CCC1[C@H](COc1ccc(Cl)c(Cl)c1)[C@@H](c1ccccc1)C2` (stereo partly drawn) [Compound 13a, (2R,3S)-2-(3,4-Dichlorophenoxymethyl)-8-methyl-3-phenyl-8-aza-bicyclo[3.2.1]octane], for which the IC50 in series [1] came out at 540 nM; in series [2], 0.4 nM.

For `CN1C2CCC1[C@H](COc1ccc(Cl)c(Cl)c1)[C@@H](c1ccc(Cl)c(Cl)c1)C2` (stereo partly drawn) [Compound 15a, (2R,3S)-2-(3,4-Dichloro-phenoxymethyl)-3-(3,4-dichloro-phenyl)-8-methyl-8-aza-bicyclo[3.2.1]octane], the IC50 in series [1] is 15 nM; in series [2] it was 20 nM. For `CC(C)[C@@H]1CC2CCC([C@@H]1COc1ccc(Cl)c(Cl)c1)N2C` (stereo partly drawn) [Compound 16, (2R,3S)-2-(3,4-Dichloro-phenoxymethyl)-3-(2-propyl)-8-methyl-8-aza-bicyclo[3.2.1]octane fumaric acid salt], the 50% inhibitory concentration (IC50) in series [1] (setting [3]) was > 1000 nM; in series [2], 0.72 nM. Take `CC(C)C1CC2CCC(N2)C1COc1ccc(Cl)c(Cl)c1` [Compound of Example 10, (2R,3S)-2-(3,4-Dichloro-phenoxymethyl)-3-(2-propyl)-8-H-8-aza-bicyclo[3.2.1]octane fumaric acid salt]: the IC50 in series [1] (setting [3]) turned out to be 260 nM; in series [2] it was 9 nM.

A word on the melting point: it is the temperature of the solid-liquid transition. What is called IC50 is the concentration that gives 50% inhibition.
